Laboratory results as given in patent US12090225B2 (Avalyn Pharma Inc., priority 2018, dated 2024).
≈ marks a conversion by molar mass, not a printed value. Marks after values point to notes of the source that are not given here.

Key:
[1] = Pattern stability screen of potential salts (40° C./75% RH, XRPD); format: physicochemical
Method: XRPD analysis was carried out on a PANalytical X'pert pro, scanning the samples between 3 and 35° 20. The material was gently compressed and loaded onto a multi-well plate with Kapton or Mylar polymer film to support the sample.
Primary Salt Screening. […] The solvent systems shown in Table were selected for salt screening. For sulfonic acids MEK was used instead of methanol and acetone:water 50:50 (v/v) was used instead of IPA:water to avoid any potential genotoxic impurities. Ca. […] If the acid was insoluble in the selected solvent, a slurry was used. If the acid was a liquid it was added to the API slurry from a stock solution in the allocated solvent. The mixtures of API/counterion/solvent were temperature cycled between ambient and 40° C. in 4 hour cycles for ca. 3 days. Any solids present were isolated and allowed to dry at ambient conditions, for ca. 30 minutes prior to analysis by XRPD. Where solutions were obtained they were evaporated to obtain solid material.

[2] = Inhaled pharmacokinetics of nintedanib salt forms (intratracheal); format: in vivo, C57BL/6 mice; settings: 1 mg/kg (base equivalent) IT, mice; listed as nintedanib hydrobromide
[3] = Citrate buffer formulation; format: physicochemical
[4] = Solid state and chemical stability of nintedanib HBr and HCl salts through 6 months; format: physicochemical; settings: for Weight loss: TGA/DSC
Source text: Table 24 and Table 25 summarize the total impurities (by HPLC), polymorphic form (by X-ray powder diffraction) and, where applicable, weight loss (by TGA/DSC) for both the HCl and HBr salt forms. […] There were no changes in polymorphic form for both salt forms stored at 25 C/60% RH condition.

[5] = 0.5 mg/mL solubility assessment (filtered/unfiltered); format: physicochemical; settings: 0.5 mg/mL experiment; for pH: listed as HBr
[6] = 7 day stability testing of salts (40° C./75% RH, 80° C., ambient light; HPLC purity, XRPD); format: physicochemical; settings: for Purity (%) / XRPD pattern after 7 day stability testing: listed as HBr salt
Method: High Performance Liquid Chromatography-Ultraviolet Detection (HPLC-UV): Instrument: Dionex Ultimate 3000; Column: Acquity CSH C18 100 mm×2.1 mm 1.7 μm; Column Temperature: 50° C.; Autosampler Temperature: Ambient; UV wavelength: 210 nm; Injection Volume: 4 μL; Flow Rate: 0.6 mL/min; Mobile Phase A: 0.1% formic acid in water; Mobile Phase B: 0.1% formic acid in acetonitrile. The HPLC method used the gradient in Table 2.
FT-IR appeared to be consistent with the structure. […] The material was physically stable to changes in temperature and humidity when stored for one week.
A new, poorly crystalline pattern was produced when stored at 40° C./75% RH—Pattern 4.
Purity of these materials remained unchanged (as shown in Table) apart from the sample stored at ambient light, where a 0.5% drop in purity was observed.

[7] = Aqueous solubility assessment of salts; format: physicochemical; settings: primary screen samples
[8] = HBr and HCl salts-filter compatibility study; format: physicochemical; settings: 0.22 μm PTFE filter; 3% PG solution; glass vials, ambient room condition
Method: HBr and HCl salts-filter compatibility study: this study was conducted to assess the compatibility of the HBr and the HCl salts with various membrane filters. […] The glass vials were stored at ambient room condition and visual appearance was periodically inspected.

[9] = cited from earlier work
[10] = Allometric dose scaling from mouse and rat to human; settings: for Predicted human half-life: Oral
[11] = Solvent solubility screen; format: physicochemical; settings: thermodynamic from solid, read-out: Approximate Solubility
Method: Between each addition, the mixture was checked for dissolution and where no dissolution was apparent, the mixture was heated to ca. 40° C. and checked again. Samples where the material dissolved, were left to evaporate. Any solids produced from evaporation samples were analyzed by XRPD in order to assess the polymorphic form.
The solvent systems used during the solvent solubility screen, together with the corresponding ICH Class, are detailed in Table 4.

[12] = Therapeutic silica model: body and lung weights; format: in vivo, C57BL/6 mice; settings: oral 30 mg/kg BID and inhaled (IN) 0.021-[…] QD nintedanib HBr
Method: Briefly, acclimated 20-22 g female C57BL/6 mice were administered silica on day 1 by the intratracheal route. On the tenth day, treatment was initiated with either saline or nintedanib. […] Sham and silica control groups received saline either IN or PO. Five animals were enrolled into sham groups, 10 animals enrolled into each PO dose groups, and 13 animals were enrolled into each IN dosing group. […] Body weights were collected throughout the study, with lung weights at termination. Flexivent was performed to determine elastance (lung function; Table 59). Left lungs were extracted, stained as assessed for parenchymal collagen (Table 60) and α-smooth muscle actin (αSMA; Table 61), while right lungs were assessed for interleukin-1β (IL-1β; Table 62). As expected, all mice administered silica lost weight from days 0 to 4. All silica administered mice began to recover from weight loss at around day 6 and continued recovery reaching their initial weight by day 10 (first therapeutic intervention). […] Neither oral or inhaled (IN) treatment or vehicles altered these characteristics.

[13] = 0.5 mg/mL citrate buffer experiments, listed as HBr
[14] = 40° C./75% RH, 2 months, listed as Nintedanib HBr salt
[15] = 40° C./75% RH, 6 months, listed as Nintedanib HBr salt

COC(=O)c1ccc2c(c1)NC(=O)/C2=C(\Nc1ccc(N(C)C(=O)CN2CCN(C)CC2)cc1)c1ccccc1 [Nintedanib HBr]
XRPD pattern after 72 hrs 40° C./75% RH ([1]; Initial pattern 3, listed as HBr): 3 | XRPD pattern after 72 hrs 40° C./75% RH ([1]; Initial pattern 4): 4 | XRPD pattern after 72 hrs 40° C./75% RH ([1]; Initial pattern 5): 5 | lung half-life [2]: about 4 minutes | Initial pH [3, 13]: 4.83 | pH 1 h [3, 13]: 4.82 | attempt to solubilize in citrate buffer ([3]; pH 4.8 buffer, ca. 0.5 mg/mL (Nintedanib)): unsuccessful | Polymorphic form ([4]; 25° C./60 % RH, 1 week): Pattern 1 | Total impurities ([4]; 25° C./60 % RH, 1 week, listed as Nintedanib HBr salt): 0.40% | Polymorphic form ([4]; 25° C./60 % RH, 2 months): Pattern 1 | Total impurities ([4]; 25° C./60 % RH, 2 months, listed as Nintedanib HBr salt): 0.42% | Polymorphic form ([4]; 25° C./60 % RH, 4 weeks): Pattern 1 | Total impurities ([4]; 25° C./60 % RH, 4 weeks, listed as Nintedanib HBr salt): 0.33% | Polymorphic form ([4]; 25° C./60 % RH, 6 months): Pattern 1 | Total impurities ([4]; 25° C./60 % RH, 6 months, listed as Nintedanib HBr salt): 0.47% | Polymorphic form ([4]; 25° C./60 % RH, Initial): Pattern 1 | Weight loss ([4]; 25° C./60 % RH, Initial, listed as Nintedanib HBr salt): 0.23% | Total impurities ([4]; 40° C./75% RH, 1 week, listed as Nintedanib HBr salt): 0.43% | Weight loss ([4]; 40° C./75% RH, 2 months): 4.12% | Polymorphic form [4, 14]: Pattern 4 | Total impurities [4, 14]: 0.41% | Weight loss ([4]; 40° C./75% RH, 4 weeks): 1.33% | Weight loss ([4]; 40° C./75% RH, 6 months): 3.72% | Polymorphic form [4, 15]: Pattern 4 | Total impurities [4, 15]: 0.44% | Weight loss ([4]; 40° C./75% RH, Initial, listed as Nintedanib HBr salt): 0.23% | concentration for filtered sample compared to unfiltered ([5]; listed as HBr salt): 94% | pH ([5]; Filtered): 5.31 | pH ([5]; Unfiltered): 5.12 | Purity (%) ([6]; 40° C./75% RH, 7 day stability testing): 99.7% | XRPD pattern after 7 day stability testing ([6]; 40° C./75% RH): mixture of Pattern 1 and 4 | XRPD pattern after 7 day stability testing ([6]; 80° C. and ambient conditions/light): remain Pattern 1 | Purity (%) ([6]; 80° C., 7 day stability testing): 99.6% | Purity (%) ([6]; Ambient, 7 day stability testing): 99.2% | Purity (%) ([6]; Input): 99.7% | drop in purity ([6]; stored at ambient light, 7 day): 0.5% | pH (aqueous solubility measurement) [7]: 3.95 | solubility ([7]; water, thermodynamic from solid, read-out: Solubility (aqueous)): ~5000 µg/mL | visual appearance after filtration [8]: no change in appearance through 1 month

COC(=O)c1ccc2c(c1)NC(=O)/C2=C(\Nc1ccc(N(C)C(=O)CN2CCN(C)CC2)cc1)c1ccccc1 [Nintedanib, methyl (3Z)-3-[[4-[methyl-[2-(4-methylpiperazin-1-yl)acetyl]amino]anilino]-phenylmethylidene]-2-oxo-1H-indole-6-carboxylate]
administered nintedanib excreted in the urine ([9]; in vivo): About 80% | oral bioavailability ([9]; oral nintedanib): 5% | Predicted human half-life ([10]; line of Mouse Oral 30.0 mg/kg): 13.6 h | Predicted human half-life ([10]; line of Rat Oral 60.0 mg/kg): 13.6 h | Predicted human ELF half-life (alpha) ([10]; from Mouse Inhaled […], 21-fold longer than animal lung half-life): 84^c min | Predicted human ELF half-life (alpha) ([10]; from Mouse Inhaled […], ELF half-life 21-fold longer than animal lung half-life): 84^c min | Predicted human ELF half-life (alpha) ([10]; from Rat Inhaled 0.05 mg/kg, 21-fold longer than animal lung half-life): 294^c min | Predicted human ELF half-life (alpha) ([10]; from Rat Inhaled 0.25 mg/kg, 21-fold longer than animal lung half-life): 294^c min | Predicted human ELF half-life (alpha) ([10]; from Rat Inhaled 0.375 mg/kg, 21-fold longer than animal lung half-life): 294^c min | solubility ([11]; 1-butanol, 40 °C, organic solvent or mixture): < 10000 µg/mL | solubility ([11]; 1-propanol, 40 °C, organic solvent or mixture): < 10000 µg/mL | solubility ([11]; 2-propanol, 40 °C, organic solvent or mixture): < 11000 µg/mL | solubility ([11]; 40 °C, aqueous with cosolvent or surfactant or cyclodextrin, 40% Methanol: 60% Water (% v/v)): < 10000 µg/mL | solubility ([11]; 50% 2-propanol: 50% water (% v/v), 40 °C, aqueous with cosolvent or surfactant or cyclodextrin): < 10000 µg/mL | solubility ([11]; N,N′-dimethylacetamide, organic solvent or mixture): 26000 µg/mL (≈ 48.2 mM) | solubility ([11]; THF, 40 °C, organic solvent or mixture): < 10000 µg/mL | solubility ([11]; acetone, 40 °C, organic solvent or mixture): < 10000 µg/mL | solubility ([11]; acetonitrile, 40 °C, organic solvent or mixture): < 10000 µg/mL | solubility ([11]; anisole, 40 °C, organic solvent or mixture): < 10000 µg/mL | solubility ([11]; dichloromethane, organic solvent or mixture): 17000 µg/mL (≈ 31.5 mM) | solubility ([11]; dimethylsulfoxide, 40 °C, organic solvent or mixture): < 10000 µg/mL | solubility ([11]; ethanol, 40 °C, organic solvent or mixture): < 10000 µg/mL | solubility ([11]; ethyl acetate, 40 °C, organic solvent or mixture): < 10000 µg/mL | solubility ([11]; ethyl ether, 40 °C, organic solvent or mixture): < 10000 µg/mL | solubility ([11]; heptane, 40 °C, organic solvent or mixture): < 10000 µg/mL | solubility ([11]; isopropyl acetate, 40 °C, organic solvent or mixture): < 10000 µg/mL | solubility ([11]; methanol, 40 °C, organic solvent or mixture): < 11000 µg/mL | solubility ([11]; methylethyl ketone, 40 °C, organic solvent or mixture): < 10000 µg/mL | solubility ([11]; methylisobutyl ketone, 40 °C, organic solvent or mixture): < 10000 µg/mL | solubility ([11]; n-hexane, 40 °C, organic solvent or mixture): < 10000 µg/mL | solubility ([11]; tert-butylmethyl ether, 40 °C, organic solvent or mixture): < 11000 µg/mL | solubility ([11]; toluene, 40 °C, organic solvent or mixture): < 10000 µg/mL | solubility ([11]; water, 40 °C, water): < 10000 µg/mL | lung weights compared to control mice [12]: Neither oral nor inhaled (IN) nintedanib significantly affected lung weights
